# From paper doi:10.1101/2024.08.19.608619, “Discovery of potent SARS-CoV-2 nsp3 macrodomain inhibitors uncovers lack of translation to cellular antiviral response” (bioRxiv, 2024)
# Several values for one entry are separate records, joined by “and”; a condition that tells them apart may be missing. Identical values can stand only once. Like-named read-outs stand apart in the source and are kept apart here.
# How the values were obtained:
# [1] = Hepatic microsomal stability, MLM; assay type: in vitro ADME
# [2] = biological target: T1, KOR receptor (Homo sapiens, UniProt P41145); assay: Eurofins CEREP panel, KOR; assay type: binding; details: for perc_inhibition (% inhibition of the binding of a ligand specific for each target) / inhibition at 10 µM: kappa (h) (KOP) (agonist radioligand), test compound concentration 10 uM; for inhibition at 10 µM: read-out: perc_inhibition (% inhibition of the binding of a ligand specific for each target)
# T1 construct: purchased Eurofins Cerep (SafetyScreen44), recognised from the panel format
# T1 sequence (P41145 whole entry): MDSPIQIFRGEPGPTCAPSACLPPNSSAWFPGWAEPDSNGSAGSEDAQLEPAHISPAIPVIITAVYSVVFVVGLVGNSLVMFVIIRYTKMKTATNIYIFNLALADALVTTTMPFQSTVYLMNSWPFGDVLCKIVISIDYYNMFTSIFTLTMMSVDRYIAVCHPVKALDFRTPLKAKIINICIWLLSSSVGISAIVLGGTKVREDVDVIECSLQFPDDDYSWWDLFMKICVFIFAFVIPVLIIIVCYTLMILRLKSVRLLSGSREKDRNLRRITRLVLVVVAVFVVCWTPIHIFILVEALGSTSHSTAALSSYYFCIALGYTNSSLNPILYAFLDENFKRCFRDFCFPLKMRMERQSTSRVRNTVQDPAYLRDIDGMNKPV
# [3] = biological target: T2, M1 (h) (Homo sapiens, UniProt P11229); assay: In vitro CEREP profiling, M1 (h) (antagonist radioligand); assay type: binding; details: test compound concentration 10 uM; for inhibition at 10 µM: read-out: perc_inhibition (% inhibition of the binding of a ligand specific for each target)
# T2 construct: purchased Eurofins Cerep (SafetyScreen44), recognised from the panel format
# T2 sequence (P11229 1-460): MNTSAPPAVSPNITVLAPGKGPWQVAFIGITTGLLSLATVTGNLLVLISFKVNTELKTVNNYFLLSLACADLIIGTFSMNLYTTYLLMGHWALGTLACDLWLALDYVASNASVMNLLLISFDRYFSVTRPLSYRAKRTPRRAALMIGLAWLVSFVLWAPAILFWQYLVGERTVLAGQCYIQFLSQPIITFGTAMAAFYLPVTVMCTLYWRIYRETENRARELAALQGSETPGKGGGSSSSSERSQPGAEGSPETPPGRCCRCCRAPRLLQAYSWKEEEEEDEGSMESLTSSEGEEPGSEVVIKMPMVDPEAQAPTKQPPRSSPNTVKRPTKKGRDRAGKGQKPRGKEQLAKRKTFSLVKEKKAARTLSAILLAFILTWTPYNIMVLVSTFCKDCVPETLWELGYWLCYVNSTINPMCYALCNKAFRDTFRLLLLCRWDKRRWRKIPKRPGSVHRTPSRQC
# Source text: (§1) Supplement media-1.zip/Safety_Panel_Profile.csv, table | column: perc_inhibition
# [4] = tested on: BZD (central); assay: In vitro CEREP profiling, BZD (central) (agonist radioligand); assay type: binding; details: test compound 10 uM
# Source text: as §1
# [5] = biological target: T3, V1a (h) (Homo sapiens, UniProt P37288); assay: In vitro CEREP profiling, V1a (h) (agonist radioligand); assay type: binding; details: test compound concentration 10 uM; for inhibition at 10 µM: read-out: perc_inhibition, % inhibition of the binding of a ligand specific for each target
# T3 construct: purchased Eurofins Cerep (SafetyScreen44), recognised from the panel format
# T3 sequence (P37288 whole entry): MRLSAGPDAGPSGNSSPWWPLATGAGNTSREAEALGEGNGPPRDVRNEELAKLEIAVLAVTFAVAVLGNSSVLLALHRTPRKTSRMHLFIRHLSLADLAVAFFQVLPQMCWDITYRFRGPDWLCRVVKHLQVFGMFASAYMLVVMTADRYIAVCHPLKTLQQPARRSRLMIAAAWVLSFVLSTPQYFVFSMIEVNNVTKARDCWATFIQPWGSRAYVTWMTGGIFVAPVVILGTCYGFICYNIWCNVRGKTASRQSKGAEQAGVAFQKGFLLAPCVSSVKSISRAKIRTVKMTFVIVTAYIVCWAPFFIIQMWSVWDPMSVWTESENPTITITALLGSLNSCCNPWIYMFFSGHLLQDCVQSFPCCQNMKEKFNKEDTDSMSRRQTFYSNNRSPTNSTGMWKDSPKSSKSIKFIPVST
# Source text: as §1
# [6] = In vitro rat SD liver microsomal stability; assay type: in vitro ADME
# Source text: (§2) Supplement media-1.zip/Hepatic_Microsomal_Stability.csv, table | column: clint; t_half
# [7] = biological target: T4, 5-HT1B (h) (Homo sapiens, UniProt P28222); assay: In vitro CEREP profiling, 5-HT1B (h) (antagonist radioligand); assay type: binding; details: test compound concentration 10 uM; for inhibition at 10 µM: read-out: perc_inhibition (% inhibition of the binding of a ligand specific for each target)
# T4 construct: purchased Eurofins Cerep (SafetyScreen44), recognised from the panel format
# T4 sequence (P28222 whole entry): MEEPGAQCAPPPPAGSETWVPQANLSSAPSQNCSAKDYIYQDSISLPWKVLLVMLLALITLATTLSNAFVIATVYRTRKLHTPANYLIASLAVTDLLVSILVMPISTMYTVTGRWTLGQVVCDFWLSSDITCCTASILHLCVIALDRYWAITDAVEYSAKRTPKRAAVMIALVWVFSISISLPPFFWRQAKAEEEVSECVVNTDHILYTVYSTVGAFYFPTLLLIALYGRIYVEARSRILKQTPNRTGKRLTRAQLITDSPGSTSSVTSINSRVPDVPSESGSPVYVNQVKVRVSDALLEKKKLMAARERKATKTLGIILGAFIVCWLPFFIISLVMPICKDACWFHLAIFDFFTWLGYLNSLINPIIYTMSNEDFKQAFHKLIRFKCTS
# Source text: as §1
# [8] = In vitro dog liver microsomal stability; assay type: in vitro ADME
# Source text: as §2
# [9] = biological target: NaV1.5 (Homo sapiens, UniProt Q14524); assay: In vitro NaV1.5 cardiotoxicity; details: top test concentration 30 uM
# NaV1.5, sequence (Q14524 whole entry): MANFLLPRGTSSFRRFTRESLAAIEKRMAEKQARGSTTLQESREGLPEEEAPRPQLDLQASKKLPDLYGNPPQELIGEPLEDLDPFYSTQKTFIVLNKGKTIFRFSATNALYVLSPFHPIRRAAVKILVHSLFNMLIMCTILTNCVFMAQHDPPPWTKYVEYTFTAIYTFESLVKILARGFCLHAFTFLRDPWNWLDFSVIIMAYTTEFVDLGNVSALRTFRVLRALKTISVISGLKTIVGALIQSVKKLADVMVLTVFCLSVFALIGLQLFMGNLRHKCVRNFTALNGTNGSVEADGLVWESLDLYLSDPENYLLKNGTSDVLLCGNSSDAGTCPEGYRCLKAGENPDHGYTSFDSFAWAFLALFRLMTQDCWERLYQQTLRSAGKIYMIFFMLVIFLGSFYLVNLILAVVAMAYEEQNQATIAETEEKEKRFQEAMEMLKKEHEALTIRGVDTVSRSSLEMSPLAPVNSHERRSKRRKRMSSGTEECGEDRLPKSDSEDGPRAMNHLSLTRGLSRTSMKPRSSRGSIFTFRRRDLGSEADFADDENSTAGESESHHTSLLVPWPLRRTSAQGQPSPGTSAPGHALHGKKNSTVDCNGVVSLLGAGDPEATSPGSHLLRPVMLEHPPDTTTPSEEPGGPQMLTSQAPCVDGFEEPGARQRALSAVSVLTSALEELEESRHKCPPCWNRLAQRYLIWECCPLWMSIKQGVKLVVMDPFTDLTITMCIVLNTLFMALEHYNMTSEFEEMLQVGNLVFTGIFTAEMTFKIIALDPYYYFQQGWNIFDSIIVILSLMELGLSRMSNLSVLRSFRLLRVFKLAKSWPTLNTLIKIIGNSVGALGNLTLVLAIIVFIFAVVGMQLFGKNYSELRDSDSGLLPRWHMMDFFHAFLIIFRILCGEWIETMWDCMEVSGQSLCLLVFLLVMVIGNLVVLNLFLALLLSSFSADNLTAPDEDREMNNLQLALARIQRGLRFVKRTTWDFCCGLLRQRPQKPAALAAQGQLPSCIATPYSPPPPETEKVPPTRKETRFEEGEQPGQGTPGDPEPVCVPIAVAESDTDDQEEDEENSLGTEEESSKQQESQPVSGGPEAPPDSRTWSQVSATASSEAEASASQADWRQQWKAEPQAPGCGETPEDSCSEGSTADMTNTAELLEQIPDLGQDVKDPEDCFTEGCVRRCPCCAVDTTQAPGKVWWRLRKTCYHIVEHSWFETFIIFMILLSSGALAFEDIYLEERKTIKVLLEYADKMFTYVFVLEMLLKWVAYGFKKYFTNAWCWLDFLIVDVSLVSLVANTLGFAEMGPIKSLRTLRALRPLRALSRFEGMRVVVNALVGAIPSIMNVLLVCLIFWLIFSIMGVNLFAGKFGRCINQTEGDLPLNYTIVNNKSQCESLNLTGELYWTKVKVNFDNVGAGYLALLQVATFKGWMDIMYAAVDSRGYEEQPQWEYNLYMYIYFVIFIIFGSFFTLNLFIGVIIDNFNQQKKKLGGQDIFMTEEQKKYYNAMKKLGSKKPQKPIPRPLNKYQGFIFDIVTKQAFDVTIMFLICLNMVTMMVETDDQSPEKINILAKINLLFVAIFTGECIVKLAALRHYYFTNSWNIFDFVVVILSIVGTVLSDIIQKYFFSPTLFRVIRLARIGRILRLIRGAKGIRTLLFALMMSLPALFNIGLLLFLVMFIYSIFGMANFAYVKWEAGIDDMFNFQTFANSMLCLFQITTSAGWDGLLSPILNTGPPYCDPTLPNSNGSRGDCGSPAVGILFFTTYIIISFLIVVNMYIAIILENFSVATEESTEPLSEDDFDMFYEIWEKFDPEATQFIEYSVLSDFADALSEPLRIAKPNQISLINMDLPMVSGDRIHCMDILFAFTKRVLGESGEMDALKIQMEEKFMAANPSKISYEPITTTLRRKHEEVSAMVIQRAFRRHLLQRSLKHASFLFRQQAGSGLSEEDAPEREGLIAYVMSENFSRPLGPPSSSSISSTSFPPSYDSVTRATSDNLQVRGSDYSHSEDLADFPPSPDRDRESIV
# Source text: Supplement media-1.zip/Cardiotoxicity.csv, table | column: ic50_rest_state; ic50_use_dep_block; perc_inhibition_rest_state; perc_inhibition_use_dep_block
# [10] = tested on: HeLa-ACE2 cells; details: read-out: 50.0, 1440 min
# [11] = biological target: SARS-CoV-2 nsp3-mac1 (Severe acute respiratory syndrome coronavirus 2, UniProt P0DTD1); assay: biochemical
# [12] = tested on: SARS-CoV-2; assay: Antiviral effect in iPSC-derived pneumocyte system; assay type: cell-based; details: iPSC pneumocytes SARS-CoV-2 antiviral effect; for perc_max_measured: maximum measured response of dose series; for perc_min_measured: minimum measured response of dose series
# [13] = tested on: iPSC pneumocytes; assay: iPSC pneumocytes cytotoxicity; assay type: cell-based; details: for perc_max_measured: highest measured response of the dose series; for perc_min_measured: lowest measured response of the dose series
# Source text: (§3) Supplement media-1.zip/Cytotoxicity.csv, table | column: cc10; cc50; perc_min_measured; perc_max_measured
# [14] = Vero E6/TMPRSS2 cytotoxicity with P-gp inhibitor; assay type: cell-based; details: African green monkey, Vero E6/TMPRSS2 cells, with P-gp inhibitor (name and concentration not stated)
# Source text: as §3
# [15] = in vitro; details: human, HeLa-ACE2 cells (uninfected)
# [16] = tested on: MDR1; assay: Permeability Papp (AB) MDR1/MDCKII; details: dog; for Papp A→B: A to B; for Papp B→A: B to A
# [17] = biological target: hERG (Homo sapiens, UniProt Q12809); assay: In vitro CEREP profiling, Potassium Channel hERG (human)- [3H] Dofetilide; assay type: binding; set-up: purchased Eurofins Cerep (SafetyScreen44), recognised from the panel format; details: hERG potassium channel binding assay, probe [3H] Dofetilide, test compound concentration 10 uM, read-out: perc_inhibition, % inhibition of the binding of a ligand specific for each target
# hERG, sequence (Q12809 whole entry): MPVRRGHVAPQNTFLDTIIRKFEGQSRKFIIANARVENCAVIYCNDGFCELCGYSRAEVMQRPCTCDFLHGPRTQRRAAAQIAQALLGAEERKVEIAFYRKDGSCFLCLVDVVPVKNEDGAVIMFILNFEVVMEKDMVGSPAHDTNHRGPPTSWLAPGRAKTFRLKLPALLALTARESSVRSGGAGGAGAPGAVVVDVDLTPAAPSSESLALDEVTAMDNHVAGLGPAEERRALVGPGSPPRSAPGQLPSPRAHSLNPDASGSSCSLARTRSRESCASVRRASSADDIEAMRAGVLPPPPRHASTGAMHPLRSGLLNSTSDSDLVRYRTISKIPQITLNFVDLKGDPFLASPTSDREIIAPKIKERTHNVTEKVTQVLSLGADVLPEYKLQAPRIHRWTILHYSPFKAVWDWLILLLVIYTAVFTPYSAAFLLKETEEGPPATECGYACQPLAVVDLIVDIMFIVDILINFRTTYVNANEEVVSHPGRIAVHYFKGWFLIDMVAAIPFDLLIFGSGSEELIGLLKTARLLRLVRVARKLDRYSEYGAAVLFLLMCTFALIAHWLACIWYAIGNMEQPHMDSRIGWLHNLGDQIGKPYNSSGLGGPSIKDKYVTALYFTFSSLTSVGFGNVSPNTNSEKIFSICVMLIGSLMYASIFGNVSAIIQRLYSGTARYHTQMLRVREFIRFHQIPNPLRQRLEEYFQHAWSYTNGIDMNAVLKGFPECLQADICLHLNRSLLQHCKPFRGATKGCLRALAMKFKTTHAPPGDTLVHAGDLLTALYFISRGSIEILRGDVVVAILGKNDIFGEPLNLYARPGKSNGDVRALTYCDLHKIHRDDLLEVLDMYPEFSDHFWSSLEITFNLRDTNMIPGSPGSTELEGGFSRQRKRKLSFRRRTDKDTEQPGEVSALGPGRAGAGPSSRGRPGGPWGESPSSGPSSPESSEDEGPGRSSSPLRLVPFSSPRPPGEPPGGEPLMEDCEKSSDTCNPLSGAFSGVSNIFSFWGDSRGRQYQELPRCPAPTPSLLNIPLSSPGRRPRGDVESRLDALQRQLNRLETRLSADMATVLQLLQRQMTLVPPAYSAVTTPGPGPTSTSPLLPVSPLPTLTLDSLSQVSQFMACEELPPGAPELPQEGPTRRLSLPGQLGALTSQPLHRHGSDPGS
# Source text: as §1
# [18] = biological target: T5, 5-HT transporter (h) (Homo sapiens, UniProt P31645); assay: In vitro CEREP profiling, 5-HT transporter (h) (antagonist radioligand); assay type: binding; details: test compound concentration 10 uM
# T5 construct: purchased Eurofins Cerep (SafetyScreen44), recognised from the panel format
# T5 sequence (P31645 whole entry): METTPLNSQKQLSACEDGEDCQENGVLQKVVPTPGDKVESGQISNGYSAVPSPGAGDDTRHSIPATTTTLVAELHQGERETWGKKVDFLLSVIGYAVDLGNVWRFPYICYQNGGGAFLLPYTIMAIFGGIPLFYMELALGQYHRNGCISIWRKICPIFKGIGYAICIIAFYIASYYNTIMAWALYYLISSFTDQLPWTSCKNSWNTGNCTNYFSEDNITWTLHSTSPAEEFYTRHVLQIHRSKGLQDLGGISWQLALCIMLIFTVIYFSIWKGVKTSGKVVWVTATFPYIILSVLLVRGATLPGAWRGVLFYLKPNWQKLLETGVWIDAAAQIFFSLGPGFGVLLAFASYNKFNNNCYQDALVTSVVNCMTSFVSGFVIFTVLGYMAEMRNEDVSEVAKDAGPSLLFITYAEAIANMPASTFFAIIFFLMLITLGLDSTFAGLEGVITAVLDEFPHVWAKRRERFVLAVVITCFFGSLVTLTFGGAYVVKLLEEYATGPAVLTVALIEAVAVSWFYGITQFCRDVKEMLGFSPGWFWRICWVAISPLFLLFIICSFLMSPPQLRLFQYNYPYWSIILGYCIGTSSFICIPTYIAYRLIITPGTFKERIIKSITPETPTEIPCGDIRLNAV
# Source text: as §1
# [19] = In vitro mouse liver microsomal stability
# [20] = In vitro mouse liver microsomal stability, no cofactor
# [21] = NaV1.5, rest state, read-out: ic50_rest_state
# [22] = NaV1.5, use dependent block, read-out: ic50_use_dep_block
# [23] = Severe acute respiratory syndrome coronavirus 2
# [24] = liver microsomes; In vitro mouse liver microsomal stability
# [25] = MDCK-MDR1, efflux_ratio, In vitro MDR1-MDCKII permeability, no inhibitor
# [26] = MDCK-MDR1, papp_a_to_b_mean, In vitro MDR1-MDCKII permeability, no inhibitor
# [27] = MDCK-MDR1, papp_b_to_a_mean, In vitro MDR1-MDCKII permeability, no inhibitor
# [28] = protocol iPSC pneumocytes cytotoxicity
compound,measurement,setting,value
Cn1ncc(-c2cc3c(N[C@@H](c4ccc5c(n4)OCCO5)C(C)(C)C)ncnc3[nH]2)c1C#N [ASAP-0011221],clint,[1]; [19],226.0 µL/min/mg
same,perc_remaining,[1]; [19],2.0%
same,t_half,[1]; [19],7.4 min
same,perc_remaining_no_cofactor,[1]; [20],94.0%
same,perc_inhibition (% inhibition of the binding of a ligand specific for each target),[2],33%
same,perc_inhibition (% inhibition of the binding of a ligand specific for each target),[3],13%
same,perc_inhibition (% inhibition of the binding of a ligand specific for each target),[4],-5%
same,perc_inhibition (% inhibition of the binding of a ligand specific for each target),[5],57%
same,clint,[6],129.0 µL/min/mg
same,t_half,[6],5.38 min
same,perc_inhibition (% inhibition of the binding of a ligand specific for each target),[7],18%
same,clint,[8],17.8 µL/min/mg
same,t_half,[8],38.8 min
same,perc_inhibition_rest_state,"[9]; NaV1.5, rest state",17.0%
same,IC50,[9]; [21],> 30 µM
same,perc_inhibition_use_dep_block,"[9]; NaV1.5, use dependent block",21.0%
same,IC50,[9]; [22],> 30 µM
same,CC50,"[10]; ASAP-0008327-001=ASAP-0011221-001, 50.0, 1440 min",> 10 µM
CC(C)C(Nc1ncnc2[nH]c(C(=O)NC3CCN(C)C3)cc12)c1ccc2c(c1)S(=O)(=O)CCC2 (centres unmarked) [ASAP-0011198],IC50,"[11]; HTRF IC50, Figure 6, tool compounds",0.065 µM
same,EC50,[12]; [23],> 50 µM
same,EC90,[12]; [23],> 50 µM
same,perc_max_measured,[12],101.646%
same,perc_min_measured,[12],52.305%
same,perc_remaining,[1]; [19],80.0%
same,t_half,[1]; [19],151.0 min
same,perc_remaining_no_cofactor,[1]; [20],92.0%
same,microsomal CLint,[1]; [24],11 µL/min/mg
same,"off-target activity at KOR receptor, in words",[2]; CEREP panel,moderate
same,inhibition at 10 µM,[2],78%
same,perc_max_measured,[13],99.57%
same,perc_min_measured,[13],87.748%
same,CC50,[14],> 5 µM
same,inhibition at 10 µM,[3],17%
same,perc_inhibition (% inhibition of the binding of a ligand specific for each target),[4],38%
same,inhibition at 10 µM,[5],6%
same,t_half,[6],88.3 min
same,microsomal CLint,"[6]; Sprague-Dawley (SD), liver microsomes",7.85 µL/min/mg
same,inhibition at 10 µM,[7],17%
same,t_half,[8],> 139.0 min
same,microsomal CLint,[8]; liver microsomes,< 5 µL/min/mg
same,IC50,[9]; [21],> 30 µM
same,inhibition at 30 µM,"[9]; NaV1.5, rest state, read-out: perc_inhibition_rest_state",11%
same,IC50,[9]; [22],> 30 µM
same,inhibition at 30 µM,"[9]; NaV1.5, use dependent block, read-out: perc_inhibition_use_dep_block",11%
same,CC50 at 24 h,[15],> 20 µM
same,efflux ratio,[16]; [25],1.3
same,Papp A→B,"[16]; MDCK-MDR1, papp_a_to_b_mean, In vitro MDR1-MDCKII permeability, mean",2.94 ×10⁻⁶ cm/s
same,Papp A→B,[16]; [26],0.0323 ×10⁻⁶ cm/s
same,Papp B→A,[16]; [27],0.0411 ×10⁻⁶ cm/s
same,efflux ratio,"[16]; MDCK-MDR1, with Cyclosporin A, efflux_ratio_inhibitor, MDR1-MDCKII, with inhibitor Cyclosporin A",1.7
same,Papp A→B,"[16]; MDCK-MDR1, with Cyclosporin A, papp_a_to_b_inhibitor_mean, MDR1-MDCKII, with inhibitor Cyclosporin A",< 0.01 ×10⁻⁶ cm/s
same,inhibition at 10 µM,[17],7%
CC(C)[C@@H](Nc1ncnc2[nH]c(-c3cnn(C)c3C#N)cc12)c1ccc2c(n1)OCCO2 [ASAP-0008418],EC50,[12],12.7 µM
same,EC90,[12],15.6 µM
same,perc_max_measured,[12],116.418%
same,perc_min_measured,[12],5.314%
same,clint,[1]; [19],139.0 µL/min/mg and 169.0 µL/min/mg
same,perc_remaining,[1]; [19],10.0% and 6.0%
same,t_half,[1]; [19],12.0 min and 9.9 min
same,perc_remaining_no_cofactor,[1]; [20],101.0%
same,perc_remaining_no_cofactor,[1]; In vitro mouse liver microsomal stability; no cofactor,110.0%
same,perc_max_measured,[13]; [28],95.683%
same,perc_min_measured,[13]; [28],63.391%
same,CC50,[10]; ASAP-0008327-001=ASAP-0008418-001,> 50 µM
Cc1nn(C)cc1-c1cc2c(NC(c3ccc4c(c3)S(=O)(=O)CCC4)C(C)C)ncnc2[nH]1 (centres unmarked) [ASAP-0011446],IC50,"[11]; HTRF IC50, Figure 4B, bioactive pure enantiomer",0.021 µM
same,perc_remaining,[1]; [19],4.0%
same,t_half,[1]; [19],8.3 min
same,perc_remaining_no_cofactor,[1]; [20],104.0%
same,microsomal CLint,[1]; [24],202 µL/min/mg
same,inhibition at 10 µM,[2],45%
same,CC50,[14],> 5 µM
same,inhibition at 10 µM,[3],11%
same,perc_inhibition (% inhibition of the binding of a ligand specific for each target),[4],29%
same,inhibition at 10 µM,[5],14%
same,inhibition at 10 µM,[7],15%
same,CC50 at 24 h,[15],> 20 µM
same,efflux ratio,[16]; [25],41.1
same,Papp A→B,[16]; [26],0.0911 ×10⁻⁶ cm/s
same,Papp B→A,[16]; [27],3.7 ×10⁻⁶ cm/s
same,efflux ratio,"[16]; MDCK-MDR1, with Verapamil, efflux_ratio_inhibitor, MDR1-MDCKII, with inhibitor Verapamil",21.8
same,Papp A→B,"[16]; MDCK-MDR1, with Verapamil, papp_a_to_b_inhibitor_mean, MDR1-MDCKII, with inhibitor Verapamil",0.216 ×10⁻⁶ cm/s
same,Papp B→A,"[16]; MDCK-MDR1, with Verapamil, papp_b_to_a_inhibitor_mean, MDR1-MDCKII, with inhibitor Verapamil",4.7 ×10⁻⁶ cm/s
same,inhibition at 10 µM,[17],3%
COc1ccc([C@H](Cc2nnn[nH]2)NC(=O)c2ncnc3[nH]ccc23)cc1 [ASAP-0015381],clint,[1]; [19],7.0 µL/min/mg
same,perc_remaining,[1]; [19],115.387%
same,t_half,[1]; [19],205.885 min
same,perc_remaining_no_cofactor,[1]; [20],100.411%
same,perc_inhibition (% inhibition of the binding of a ligand specific for each target),[2],2%
same,perc_inhibition (% inhibition of the binding of a ligand specific for each target),[3],-4%
same,perc_inhibition (% inhibition of the binding of a ligand specific for each target),[4],0%
same,perc_inhibition (% inhibition of the binding of a ligand specific for each target),[5],5%
same,clint,[6],< 5.0 µL/min/mg
same,t_half,[6],> 139.0 min
same,perc_inhibition (% inhibition of the binding of a ligand specific for each target),[7],-14%
same,perc_inhibition (% inhibition of the binding of a ligand specific for each target),[18],-1%
same,clint,[8],< 5.0 µL/min/mg
same,t_half,[8],> 139.0 min
same,perc_inhibition_rest_state,"[9]; NaV1.5, rest state",9.0%
same,IC50,[9]; [21],> 30 µM
same,perc_inhibition_use_dep_block,"[9]; NaV1.5, use dependent block",8.0%
same,IC50,[9]; [22],> 30 µM
